Legend:
[1] = target: Mitogen-activated protein kinase kinase kinase 19 (Homo sapiens) (UniProt Q56UN5); conditions: Compound concentration 1000.0 nM
[2] = target: Mitogen-activated protein kinase 11 (Homo sapiens) (UniProt Q15759); conditions: Compound concentration 1000.0 nM
[3] = target: Macrophage colony-stimulating factor 1 receptor (Homo sapiens) (UniProt P07333); conditions: Compound concentration 1000.0 nM
[4] = target: Rho-associated protein kinase 1 (Homo sapiens) (UniProt Q13464); conditions: Compound concentration 1000.0 nM
[5] = target: Serine/threonine-protein kinase haspin (Homo sapiens) (UniProt Q8TF76); conditions: Compound concentration 1000.0 nM
[6] = target: Dual specificity protein kinase CLK1 (Homo sapiens) (UniProt P49759); conditions: Compound concentration 1000.0 nM
Chain of Dual specificity protein kinase CLK1 (Homo sapiens) (P49759 whole entry, looked up): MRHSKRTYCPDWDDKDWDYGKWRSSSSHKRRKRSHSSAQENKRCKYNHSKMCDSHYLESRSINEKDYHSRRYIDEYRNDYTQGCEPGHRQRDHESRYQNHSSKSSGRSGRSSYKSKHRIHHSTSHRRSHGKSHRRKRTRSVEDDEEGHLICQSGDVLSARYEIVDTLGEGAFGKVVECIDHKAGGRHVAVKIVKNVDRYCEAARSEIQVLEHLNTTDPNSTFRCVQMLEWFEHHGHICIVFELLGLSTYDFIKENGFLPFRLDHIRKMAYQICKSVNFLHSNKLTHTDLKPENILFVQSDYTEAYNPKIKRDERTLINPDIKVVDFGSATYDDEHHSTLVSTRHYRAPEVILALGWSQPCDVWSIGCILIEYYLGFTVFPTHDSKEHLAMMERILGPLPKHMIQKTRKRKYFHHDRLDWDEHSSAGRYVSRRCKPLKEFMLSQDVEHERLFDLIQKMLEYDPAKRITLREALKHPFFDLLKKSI

[7] = target: Ribosomal protein S6 kinase alpha-5 (Homo sapiens) (UniProt O75582); conditions: Compound concentration 1000.0 nM
[8] = target: Ribosomal protein S6 kinase alpha-3 (Homo sapiens) (UniProt P51812); conditions: Compound concentration 1000.0 nM
[9] = target: Kappa-type opioid receptor (Homo sapiens) (UniProt P41145); conditions: Compound concentration 10.0 uM
[10] = target: Serine/threonine-protein kinase 10 (Homo sapiens) (UniProt O94804); conditions: Compound concentration 1000.0 nM
[11] = target: Serine/threonine-protein kinase BRSK1 (Homo sapiens) (UniProt Q8TDC3); conditions: Compound concentration 1000.0 nM
[12] = target: Dual specificity mitogen-activated protein kinase kinase 5 (Homo sapiens) (UniProt Q13163); conditions: Compound concentration 1000.0 nM
[13] = test system: Phosphatidylinositol 4,5-bisphosphate 3-kinase catalytic subunit alpha isoform (Homo sapiens), P42336 [E545K]; conditions: Compound concentration 1000.0 nM
[14] = target: Serine/threonine-protein kinase PAK 6 (Homo sapiens) (UniProt Q9NQU5); conditions: Compound concentration 1000.0 nM
[15] = target: Misshapen-like kinase 1 (Homo sapiens) (UniProt Q8N4C8); conditions: Compound concentration 1000.0 nM
[16] = target: MAP/microtubule affinity-regulating kinase 4 (Homo sapiens) (UniProt Q96L34); conditions: Compound concentration 1000.0 nM
[17] = target: MAP/microtubule affinity-regulating kinase 3 (Homo sapiens) (UniProt P27448); conditions: Compound concentration 1000.0 nM
[18] = target: Cyclin-dependent kinase 4 (Homo sapiens) (UniProt P11802); conditions: Compound concentration 1000.0 nM
[19] = target: Tyrosine-protein kinase Tec (Homo sapiens) (UniProt P42680); conditions: Compound concentration 1000.0 nM
[20] = test system: Epidermal growth factor receptor (Homo sapiens), P00533 [UNDEFINED MUTATION]; conditions: Compound concentration 1000.0 nM
[21] = target: Serine/threonine-protein kinase tousled-like 1 (Homo sapiens) (UniProt Q9UKI8); conditions: Compound concentration 1000.0 nM
[22] = target: Homeodomain-interacting protein kinase 4 (Homo sapiens) (UniProt Q8NE63); conditions: Compound concentration 1000.0 nM
[23] = target: Mitogen-activated protein kinase kinase kinase kinase 5 (Homo sapiens) (UniProt Q9Y4K4); conditions: Compound concentration 1000.0 nM
[24] = target: Mitogen-activated protein kinase kinase kinase 20 (Homo sapiens) (UniProt Q9NYL2); conditions: Compound concentration 1000.0 nM
[25] = target: Ribosomal protein S6 kinase alpha-2 (Homo sapiens) (UniProt Q15349); conditions: Compound concentration 1000.0 nM
Chain of Ribosomal protein S6 kinase alpha-2 (Homo sapiens) (Q15349 whole entry): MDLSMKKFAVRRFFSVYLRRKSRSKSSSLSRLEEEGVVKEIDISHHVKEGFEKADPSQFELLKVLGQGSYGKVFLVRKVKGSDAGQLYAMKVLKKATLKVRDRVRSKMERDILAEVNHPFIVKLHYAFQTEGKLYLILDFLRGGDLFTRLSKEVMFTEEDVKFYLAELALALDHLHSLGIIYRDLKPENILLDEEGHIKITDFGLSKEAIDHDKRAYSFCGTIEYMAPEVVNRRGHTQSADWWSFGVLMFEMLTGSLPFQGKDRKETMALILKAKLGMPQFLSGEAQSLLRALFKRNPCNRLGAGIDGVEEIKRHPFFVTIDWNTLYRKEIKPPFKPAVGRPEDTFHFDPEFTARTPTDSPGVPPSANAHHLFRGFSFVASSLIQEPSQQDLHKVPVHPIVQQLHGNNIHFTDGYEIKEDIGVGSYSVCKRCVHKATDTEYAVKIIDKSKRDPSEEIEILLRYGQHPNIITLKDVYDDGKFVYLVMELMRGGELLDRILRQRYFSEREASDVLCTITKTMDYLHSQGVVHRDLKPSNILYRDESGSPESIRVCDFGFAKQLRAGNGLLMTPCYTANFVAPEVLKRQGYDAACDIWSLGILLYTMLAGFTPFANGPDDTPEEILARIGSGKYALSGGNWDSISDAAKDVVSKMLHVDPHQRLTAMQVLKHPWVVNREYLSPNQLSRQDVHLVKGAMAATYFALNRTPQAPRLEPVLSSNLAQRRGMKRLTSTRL

[26] = target: Fibroblast growth factor receptor 1 (Homo sapiens) (UniProt P11362); conditions: Compound concentration 1000.0 nM
[27] = target: Platelet-derived growth factor receptor beta (Homo sapiens) (UniProt P09619); conditions: Compound concentration 1000.0 nM
[28] = target: 5-hydroxytryptamine receptor 1B (Homo sapiens) (UniProt P28222); conditions: Compound concentration 10.0 uM
[29] = target: D(4) dopamine receptor (Homo sapiens) (UniProt P21917); conditions: Compound concentration 10.0 uM
[30] = target: Dual specificity protein kinase CLK2 (Homo sapiens) (UniProt P49760); conditions: Compound concentration 1000.0 nM
[31] = target: Leucine-rich repeat serine/threonine-protein kinase 2 (Homo sapiens) (UniProt Q5S007); conditions: Compound concentration 1000.0 nM
[32] = target: STE20-like serine/threonine-protein kinase (Homo sapiens) (UniProt Q9H2G2); conditions: Compound concentration 1000.0 nM
Chain of STE20-like serine/threonine-protein kinase (Homo sapiens) (Q9H2G2 whole entry, looked up): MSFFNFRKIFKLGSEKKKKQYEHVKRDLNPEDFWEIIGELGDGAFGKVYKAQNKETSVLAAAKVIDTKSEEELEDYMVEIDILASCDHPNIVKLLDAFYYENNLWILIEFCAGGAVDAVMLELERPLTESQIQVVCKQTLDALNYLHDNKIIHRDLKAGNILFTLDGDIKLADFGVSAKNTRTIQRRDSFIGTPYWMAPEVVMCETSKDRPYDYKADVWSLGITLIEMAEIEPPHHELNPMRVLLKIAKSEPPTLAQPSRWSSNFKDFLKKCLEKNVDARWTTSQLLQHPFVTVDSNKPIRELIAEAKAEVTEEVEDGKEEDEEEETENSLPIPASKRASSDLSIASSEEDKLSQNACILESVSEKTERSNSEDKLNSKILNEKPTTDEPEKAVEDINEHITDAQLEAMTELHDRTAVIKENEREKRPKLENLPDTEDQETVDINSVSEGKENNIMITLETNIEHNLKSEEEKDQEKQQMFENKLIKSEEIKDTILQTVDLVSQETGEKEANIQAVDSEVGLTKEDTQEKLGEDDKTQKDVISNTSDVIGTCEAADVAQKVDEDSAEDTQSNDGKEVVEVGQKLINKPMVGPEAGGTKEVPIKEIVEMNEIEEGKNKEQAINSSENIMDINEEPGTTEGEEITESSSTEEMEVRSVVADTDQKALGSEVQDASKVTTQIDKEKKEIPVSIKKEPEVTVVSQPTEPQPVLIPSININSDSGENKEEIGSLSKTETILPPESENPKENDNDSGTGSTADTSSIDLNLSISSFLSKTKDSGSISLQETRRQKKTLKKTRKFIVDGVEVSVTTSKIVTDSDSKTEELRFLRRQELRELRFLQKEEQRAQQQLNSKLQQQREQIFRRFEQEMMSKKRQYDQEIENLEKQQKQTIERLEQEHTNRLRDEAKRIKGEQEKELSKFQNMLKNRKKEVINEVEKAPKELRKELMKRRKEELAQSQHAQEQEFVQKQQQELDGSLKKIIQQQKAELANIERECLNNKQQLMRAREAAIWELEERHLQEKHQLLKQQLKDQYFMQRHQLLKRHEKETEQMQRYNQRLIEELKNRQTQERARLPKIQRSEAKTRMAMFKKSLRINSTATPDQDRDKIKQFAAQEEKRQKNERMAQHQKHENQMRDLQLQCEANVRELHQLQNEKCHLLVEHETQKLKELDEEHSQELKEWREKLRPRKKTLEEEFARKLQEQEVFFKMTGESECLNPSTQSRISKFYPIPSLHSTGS

[33] = target: Mitogen-activated protein kinase kinase kinase 3 (Homo sapiens) (UniProt Q99759); conditions: Compound concentration 1000.0 nM
Chain of Mitogen-activated protein kinase kinase kinase 3 (Homo sapiens) (Q99759 whole entry): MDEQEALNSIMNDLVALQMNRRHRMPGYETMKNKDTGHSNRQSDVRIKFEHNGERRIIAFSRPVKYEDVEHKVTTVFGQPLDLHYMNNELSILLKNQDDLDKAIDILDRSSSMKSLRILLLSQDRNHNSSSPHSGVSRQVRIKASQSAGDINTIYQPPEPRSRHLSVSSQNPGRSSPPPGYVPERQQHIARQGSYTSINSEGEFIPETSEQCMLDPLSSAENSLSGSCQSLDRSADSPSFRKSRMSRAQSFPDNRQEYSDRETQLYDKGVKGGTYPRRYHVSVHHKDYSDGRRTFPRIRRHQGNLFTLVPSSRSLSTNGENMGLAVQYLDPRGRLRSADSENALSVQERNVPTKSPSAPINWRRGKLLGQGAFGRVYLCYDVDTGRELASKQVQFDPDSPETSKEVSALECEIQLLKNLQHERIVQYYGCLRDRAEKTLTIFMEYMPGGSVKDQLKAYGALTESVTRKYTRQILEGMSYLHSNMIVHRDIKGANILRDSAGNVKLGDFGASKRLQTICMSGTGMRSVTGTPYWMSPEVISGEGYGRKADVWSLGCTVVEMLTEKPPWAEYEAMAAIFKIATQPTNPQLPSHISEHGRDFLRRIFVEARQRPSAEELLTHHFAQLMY

[34] = target: Dual specificity protein kinase TTK (Homo sapiens) (UniProt P33981); conditions: Compound concentration 1000.0 nM
Chain of Dual specificity protein kinase TTK (Homo sapiens) (P33981 whole entry): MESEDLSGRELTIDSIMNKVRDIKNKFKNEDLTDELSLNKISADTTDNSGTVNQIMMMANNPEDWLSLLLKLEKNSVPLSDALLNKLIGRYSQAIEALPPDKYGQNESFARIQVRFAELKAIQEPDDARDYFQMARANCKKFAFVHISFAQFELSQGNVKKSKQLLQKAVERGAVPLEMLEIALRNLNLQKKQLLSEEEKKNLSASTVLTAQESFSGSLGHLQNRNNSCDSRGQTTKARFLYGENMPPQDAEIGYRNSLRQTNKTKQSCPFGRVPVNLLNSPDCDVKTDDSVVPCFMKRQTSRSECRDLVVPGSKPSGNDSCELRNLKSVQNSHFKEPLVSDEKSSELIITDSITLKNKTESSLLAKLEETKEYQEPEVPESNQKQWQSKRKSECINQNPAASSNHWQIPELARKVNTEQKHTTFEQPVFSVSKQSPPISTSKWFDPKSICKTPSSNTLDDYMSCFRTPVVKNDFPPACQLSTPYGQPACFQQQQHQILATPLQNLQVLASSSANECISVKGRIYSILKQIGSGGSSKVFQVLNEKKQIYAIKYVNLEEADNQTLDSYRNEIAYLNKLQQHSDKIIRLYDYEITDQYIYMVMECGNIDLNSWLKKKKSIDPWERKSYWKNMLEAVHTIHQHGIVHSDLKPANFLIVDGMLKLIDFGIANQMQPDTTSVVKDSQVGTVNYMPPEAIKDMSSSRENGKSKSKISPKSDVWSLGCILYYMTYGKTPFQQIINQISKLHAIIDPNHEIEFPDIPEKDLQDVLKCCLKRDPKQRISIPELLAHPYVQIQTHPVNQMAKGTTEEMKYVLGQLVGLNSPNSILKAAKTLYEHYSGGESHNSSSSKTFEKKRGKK

[35] = target: Cyclin-dependent kinase-like 3 (Homo sapiens) (UniProt Q8IVW4); conditions: Compound concentration 1000.0 nM
[36] = target: Aurora kinase B (Homo sapiens) (UniProt Q96GD4); conditions: Compound concentration 1000.0 nM
[37] = target: Citron Rho-interacting kinase (Homo sapiens) (UniProt O14578); conditions: Compound concentration 1000.0 nM
[38] = target: Casein kinase I isoform gamma-1 (Homo sapiens) (UniProt Q9HCP0); conditions: Compound concentration 1000.0 nM
[39] = target: Proto-oncogene tyrosine-protein kinase Src (Homo sapiens) (UniProt P12931); conditions: Compound concentration 1000.0 nM
[40] = target: Serine/threonine-protein kinase Nek3 (Homo sapiens) (UniProt P51956); conditions: Compound concentration 1000.0 nM
[41] = target: Protein-tyrosine kinase 2-beta (Homo sapiens) (UniProt Q14289); conditions: Compound concentration 1000.0 nM
[42] = target: Tyrosine-protein kinase Blk (Homo sapiens) (UniProt P51451); conditions: Compound concentration 1000.0 nM
[43] = target: Tyrosine-protein kinase ABL1 (Homo sapiens) (UniProt P00519); conditions: Compound concentration 1000.0 nM
[44] = target: Calcium/calmodulin-dependent protein kinase type II subunit delta (Homo sapiens) (UniProt Q13557); conditions: Compound concentration 1000.0 nM

Chain of Macrophage colony-stimulating factor 1 receptor (Homo sapiens) (P07333 whole entry): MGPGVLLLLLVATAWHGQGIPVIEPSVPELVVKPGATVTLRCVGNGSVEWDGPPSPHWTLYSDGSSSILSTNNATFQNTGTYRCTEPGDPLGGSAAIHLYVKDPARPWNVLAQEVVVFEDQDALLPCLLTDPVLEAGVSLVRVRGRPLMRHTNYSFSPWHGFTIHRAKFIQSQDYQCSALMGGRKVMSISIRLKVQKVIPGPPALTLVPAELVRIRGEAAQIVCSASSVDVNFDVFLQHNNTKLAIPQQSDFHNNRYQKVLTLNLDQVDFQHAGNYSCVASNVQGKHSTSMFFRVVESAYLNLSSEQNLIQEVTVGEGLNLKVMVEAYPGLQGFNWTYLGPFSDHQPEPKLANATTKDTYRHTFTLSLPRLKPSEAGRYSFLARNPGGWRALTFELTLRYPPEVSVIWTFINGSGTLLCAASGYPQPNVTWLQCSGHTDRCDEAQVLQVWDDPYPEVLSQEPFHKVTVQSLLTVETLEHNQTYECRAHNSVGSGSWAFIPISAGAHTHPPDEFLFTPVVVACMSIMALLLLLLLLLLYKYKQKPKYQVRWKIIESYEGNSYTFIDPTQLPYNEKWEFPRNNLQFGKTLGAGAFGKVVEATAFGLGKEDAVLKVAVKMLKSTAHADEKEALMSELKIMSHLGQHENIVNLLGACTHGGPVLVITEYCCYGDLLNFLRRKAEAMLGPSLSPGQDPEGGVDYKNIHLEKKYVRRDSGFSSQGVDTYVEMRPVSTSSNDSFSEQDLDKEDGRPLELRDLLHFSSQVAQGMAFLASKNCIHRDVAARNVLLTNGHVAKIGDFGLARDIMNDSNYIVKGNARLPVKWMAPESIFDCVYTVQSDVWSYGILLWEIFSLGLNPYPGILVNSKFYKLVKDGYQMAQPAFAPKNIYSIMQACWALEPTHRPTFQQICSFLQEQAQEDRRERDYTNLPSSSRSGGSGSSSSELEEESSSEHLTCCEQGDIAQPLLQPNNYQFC

CC(C)(O)c1cncc(-c2nc3ccc(F)cc3n2C2CC2)c1 [MSD-CYP11B2]
inactive: residual activity [1] 93% | residual activity [2] 100% | residual activity [3] 100% | residual activity [4] 99% | residual activity [5] 83% | residual activity [6] 94% | residual activity [7] 100% | residual activity [8] 100% | inhibition [9] -8.65% | residual activity [10] 100% | residual activity [11] 100% | residual activity [12] 100% | residual activity [13] 95% | residual activity [14] 100% | residual activity [15] 100% | residual activity [16] 100% | residual activity [17] 100% | residual activity [18] 100% | residual activity [19] 100% | residual activity [20] 100% | residual activity [21] 100% | residual activity [22] 100% | residual activity [23] 92% | residual activity [24] 100% | residual activity [25] 100% | residual activity [26] 100% | residual activity [27] 100% | inhibition [28] 16.8% | inhibition [29] -5.72% | residual activity [30] 100% | residual activity [31] 100% | residual activity [32] 100% | residual activity [33] 99% | residual activity [34] 100% | residual activity [35] 84% | residual activity [36] 100% | residual activity [37] 100% | residual activity [38] 100% | residual activity [39] 100% | residual activity [40] 100% | residual activity [41] 100% | residual activity [42] 98% | residual activity [43] 98% | residual activity [44] 100%

FC(F)(F)c1ccc2c(c1)nc(-c1cccnc1)n2C1CC1 [MSD-CYP11B2-Negative-control]
inactive: residual activity [1] 99% | residual activity [2] 100% | residual activity [3] 89% | residual activity [4] 100% | residual activity [5] 96% | residual activity [6] 100% | residual activity [7] 100% | residual activity [8] 89% | inhibition [9] -1.84% | residual activity [10] 100% | residual activity [11] 100% | residual activity [12] 96% | residual activity [13] 100% | residual activity [14] 100% | residual activity [15] 100% | residual activity [16] 100% | residual activity [17] 100% | residual activity [18] 100% | residual activity [19] 100% | residual activity [20] 87% | residual activity [21] 100% | residual activity [22] 100% | residual activity [23] 100% | residual activity [24] 100% | residual activity [25] 100% | residual activity [26] 100% | residual activity [27] 100% | inhibition [28] 8.83% | inhibition [29] -3.28% | residual activity [30] 100% | residual activity [31] 100% | residual activity [32] 100% | residual activity [33] 100% | residual activity [34] 100% | residual activity [35] 96% | residual activity [36] 100% | residual activity [37] 100% | residual activity [38] 100% | residual activity [39] 100% | residual activity [40] 88% | residual activity [41] 100% | residual activity [42] 96% | residual activity [43] 97% | residual activity [44] 100%

Reference: ChEMBL document CHEMBL4507294, “Data for DCP probe MSD-CYP11B2” (2021)
